Patent US20090264415A2 (priority 2004, published 2009)

What follows are molecules tested on peripheral blood mononuclear cells (PBMC) stimulated with allogeneic PBMC or EBV-transformed human B cells (RPMI1788) (assay: Mixed lymphocyte reaction (MLR) assay). Conditions: 50% suppression of the MLR, [3H]-thymidine incorporation; read-out: MLR.
Type: cell-based
Method: Pyrido[3,2-d]pyrimidine derivatives were first dissolved (10 mM) in dimethyl-sulfoxide (hereinafter referred as DMSO) and further diluted in culture medium before use for the following in vitro experiments. […] Some pyrido[3,2-d]pyrimidine derivatives described herein were tested in the following mixed lymphocyte reaction (MLR) assay.
Peripheral blood mononuclear cells (hereinafter referred as PBMC) were isolated from heparinized peripheral blood by density gradient centrifugation over Lymphoprep (Nycomed, Maorstua, Norway). Allogeneic PBMC or Eppstein-Barr Virus-transformed human B cells [commercially available under the trade name RPM11788 (ATCC name CCL156)] which strongly express B7-1 and B7-2 antigens were used as stimulator cells after irradiation with 30 Gy. MLR was performed in triplicate wells. After 5 days incubation at 37° C., 1 μCi [^3H]-thymidine was added to each cup. After a further 16 hours incubation, cells were harvested and counted in a β-counter. Inhibition of proliferation by a compound described in some of the present examples was counted while using the formula: [formula] wherein cpm is the thymidine count per minute. The MLR assay is regarded by those skilled in the art as an in vitro analogue of the transplant rejection since it is based on the recognition of allogeneic major histocompatibility antigens on the stimulator leukocytes, by responding lymphocytes.

SMILES	IC50 [nM]
COc1ccc(-c2ccc3nc(Cl)nc(N4CCN(C(=O)Nc5cccc(C)c5)CC4)c3n2)cc1OC [Example 14]	66
COc1ccc(-c2ccc3nc(OCCOc4ccccc4)nc(N4CCN(C(=O)Nc5cccc(C)c5)CC4)c3n2)cc1OC [Example 18]	900
COc1ccc(-c2ccc3nc(N)nc(N4CCN(C(=O)COc5ccccc5)CC4)c3n2)cc1OC [Example 60, 2-amino-4-[(N-phenoxy-acetyl)-piperazin-1-yl]-6-(3,4-dimethoxyphenyl)-pyrido[3,2-d]pyrimidine]	53
O=C(Nc1cccc(Cl)c1)N1CCN(c2ncnc3ccc(Cl)nc23)CC1 [Example 70, 4-[(N-3-chlorophenylcarbamoyl)-piperazin-1-yl]-6-chloro-pyrido[3,2-d]pyrimidine]	3400
COc1ccc(-c2ccc3nc(N4CCOCC4)nc(N4CCN(C(=O)Nc5cccc(C)c5)CC4)c3n2)cc1OC [Example 88]	400
CCCCOc1nc(N2CCN(C(=O)Nc3cccc(C)c3)CC2)c2nc(-c3ccc(OC)c(OC)c3)ccc2n1 [Example 89, 2-butoxy-4-[(N-3-methyl-phenylcarbamoyl)-piperazin-1-yl]-6-(3,4-dimethoxyphenyl)-pyrido[3,2-d]pyrimidine]	2000
COc1ccc(-c2ccc3nc(Nc4ccc(C)cc4)nc(N4CCN(C(=O)Nc5cccc(C)c5)CC4)c3n2)cc1OC [Example 91, 2-(p-tolylamino)-4-[(N-3-methylphenylcarbamoyl)-piperazin-1-yl]-6-(3,4-dimethoxy-phenyl)-pyrido[3,2-d]pyrimidine]	800
COc1ccc(-c2ccc3nc(Nc4ccc(F)c(Cl)c4)nc(N4CCN(C(=O)Nc5cccc(C)c5)CC4)c3n2)cc1OC [Example 92]	1200
COc1cc(-c2ccc3nc(N)nc(N4CCOCC4)c3n2)ccc1OC1CCCC1 [Example 98, 2-amino-4-(N-morpholino)-6-(4-cyclopentyloxy-3-methoxyphenyl)-pyrido[3,2-d]pyrimidine]	7600
COc1ccc(-c2ccc3ncnc(N4CCN(C(=O)Nc5ccc(F)cc5)CC4)c3n2)cc1OC [Example 111, 4-[(N-4-fluorophenylcarbamoyl)-piperazin-1-yl]-6-(3,4-dimethoxyphenyl)-pyrido[3,2-d]pyrimidine]	30
Nc1nc(N2CCN(CCOc3ccccc3)CC2)c2nc(-c3ccc(F)cc3)ccc2n1 [Example 205]	5500

Same assay, conditions: Homo sapiens, RPMI-1788; 50% suppression of the MLR, [3H]-thymidine incorporation; read-out: MLR

SMILES	IC50 [nM]
Nc1nc(N2CCOCC2)c2nc(-c3ccc(Cl)c(Cl)c3)ccc2n1 [184/231, 2-amino-4-(morpholino)-6-(3,4-dichlorophenyl)-pyrido[3,2-d]pyrimidine]	3900
COc1ccc(Cl)c(Nc2nc(N)nc3ccc(-c4ccc(OC)c(OC)c4)nc23)c1 [Example 30, 2-amino-4-(2-chloro-5-methoxy-anilino)-6-(3,4-dimethoxyphenyl)pyrido[3,2-d]pyrimidine]	10000
COc1cc(-c2ccc3nc(N)nc(N)c3n2)ccc1O [Example 93, 2,4-diamino-6-(4-hydroxy-3-methoxyphenyl)-pyrido[3,2-d]pyrimidine]	5100
CC(=O)Nc1nc(-c2nc[nH]n2)c2nc(-c3ccc(Cl)c(Cl)c3)ccc2n1 [Example 145, 2-acetamido-4-(1,2,4-triazolyl)-6-(3,4-dichloro-phenyl)pyrido-[3,2-d]pyrimidine]	5300
Nc1nc(N2CCN(C(=O)NCc3ccc(Cl)cc3)CC2)c2nc(-c3ccc(F)cc3)ccc2n1 [Example 189, 2-amino-4-[(N-4-chloro-benzylcarbamoyl)-piperazin-1-yl]-6-(4-fluorophenyl)-pyrido[3,2-d]pyrimidine]	500
Nc1nc(N2CCN(C(=O)c3ccco3)CC2)c2nc(-c3ccc4c(c3)OCO4)ccc2n1 [Example 192, 2-amino-4-[N-(2-furoyl)-piperazin-1-yl]-6-(3,4-methylenedioxyphenyl)-pyrido[3,2-d]pyrimidine]	8100
Nc1nc(N2CCN(C(=O)c3ccco3)CC2)c2nc(-c3ccc4c(c3)OCCO4)ccc2n1 [Example 203, 2-amino-4-[N-(2-furoyl)-piperazin-1-yl]-6-(1,4-benzo-dioxane)-pyrido[3,2-d]pyrimidine]	5700
Nc1nc(N2CCN(c3ccc(F)cc3)CC2)c2nc(-c3ccc(F)cc3)ccc2n1 [Example 204, 2-amino-4-[N-(4-fluoro-phenyl)-piperazin-1-yl]-6-(4-fluorophenyl)-pyrido[3,2-d]pyrimidine]	6400
COc1ccc(-c2ccc3nc(N)nc(N4CC[C@H](NC(=O)Nc5cccc(C)c5)C4)c3n2)cc1OC [Example 221]	1300
Nc1nc(N2CCOCC2)c2nc(Cl)ccc2n1 [Example 230, 2-amino-6-chloro-4-morpholino-pyrido[3,2-d]pyrimidine]	> 10000
COc1cccc(-c2ccc3nc(N)nc(N4CCOCC4)c3n2)n1 [Example 236, 2-amino-4-morpholino-6-(6-methoxy-2-pyridinyl)-pyrido[3,2-d]pyrimidine]	5300
Nc1nc(N2CCOCC2)c2nc(-c3ccc(F)c(Cl)c3)ccc2n1 [Example 242, 2-amino-4-morpholino-6-(3-chloro-4-fluorophenyl)-pyrido[3,2-d]pyrimidine]	2600
Nc1nc(N2CCOCC2)c2nc(-c3ccc(F)cc3)ccc2n1 [Example 245, 2-amino-4-morpholino-6-(4-fluorophenyl)-pyrido[3,2-d]pyrimidine]	2300
COc1ccc(-c2ccc3nc(N)nc(N)c3n2)cc1OC [Example 256, 2,4-diamino-6-(3,4-dimethoxyphenyl)-pyrido[3,2-d]pyrimidine]	600
COc1ccc(-c2ccc3nc(N)nc(N4CC[C@@H](NC(=O)Nc5cccc(C)c5)C4)c3n2)cc1OC [Example 260]	2100
COc1ccc(-c2ccc3nc(N)nc(N4CCC(O)(c5ccc(Cl)cc5)CC4)c3n2)cc1OC [Example 269, 2-amino-4-(4-chlorophenyl-4-hydroxypiperidin-1-yl)-6-(3,4-dimethoxyphenyl)-pyrido[3,2-d]pyrimidine]	3100

Same assay, conditions: Homo sapiens, RPMI-1788; MLR assay of example 319; read-out: MLR IC50

SMILES	IC50 [nM]
CC(C)(C)OC(=O)NC(Cc1ccc(Cl)cc1)C(=O)N1CCN(c2nc(N)nc3ccc(-c4ccc(F)cc4)nc23)CC1 (stereo in doubt) [Example 477, (S)-[2-{4-[2-amino-6-(4-fluorophenyl)-pyrido[3,2-d]pyrimidin-4-yl]-piperazin-1-yl}-1-(4-chlorobenzyl)-2-oxoethyl]-carbamic acid tert-butyl ester]	4900
Nc1nc(N2CCN(C(=O)C(N)Cc3ccc(Cl)cc3)CC2)c2nc(-c3ccc(F)cc3)ccc2n1 (stereo in doubt) [Example 488, (S)-2-amino-4-{4-[3-(4-chlorophenyl)-2-aminopropionyl]piperazin-1-yl}-6-(4-fluorophenyl)-pyrido[3,2-d]pyrimidine]	4300
Nc1nc(N2CCN(C(=O)COc3ccc4ccccc4c3)CC2)c2nc(-c3ccc(F)cc3)ccc2n1 [Example 383, 2-amino-4-[4-(2-naphthoxyacetyl)piperazin-1-yl]-6-(4-fluorophenyl)-pyrido[3,2-d]pyrimidine]	500
Cc1cccc(OCC(=O)N2CCN(c3nc(N)nc4ccc(-c5ccc(F)cc5)nc34)CC2)c1 [Example 384, 2-amino-4-[4-(3-methylphenoxyacetyl)piperazin-1-yl]-6-(4-fluorophenyl)-pyrido[3,2-d]pyrimidine]	50
Nc1nc(N2CCN(C(=O)COc3cccc(Cl)c3)CC2)c2nc(-c3ccc(F)cc3)ccc2n1 [Example 385, 2-amino-4-[4-(3-chlorophenoxyacetyl)piperazin-1-yl]-6-(4-fluorophenyl)-pyrido[3,2-d]pyrimidine]	90
Nc1nc(N2CCN(C(=O)COc3ccc(Cl)cc3Cl)CC2)c2nc(-c3ccc(F)cc3)ccc2n1 [Example 386, 2-amino-4-[4-(2,4-dichlorophenoxyacetyl)piperazin-1-yl]-6-(4-fluorophenyl)-pyrido[3,2-d]pyrimidine]	400
Nc1nc(N2CCN(C(=O)COc3ccc(F)cc3)CC2)c2nc(-c3ccc(F)cc3)ccc2n1 [Example 387, 2-amino-4-[4-(4-fluorophenoxyacetyl)piperazin-1-yl]-6-(4-fluorophenyl)-pyrido[3,2-d]pyrimidine]	200
Nc1nc(N2CCN(C(=O)COc3ccc(Br)cc3)CC2)c2nc(-c3ccc(F)cc3)ccc2n1 [Example 388, 2-amino-4-[4-(4-bromophenoxyacetyl)piperazin-1-yl]-6-(4-fluorophenyl)-pyrido[3,2-d]pyrimidine]	50
COc1ccc(-c2ccc3nc(N)nc(N4CCN(C(=O)CC(C)(C)C)CC4)c3n2)cc1OC [Example 392, 2-amino-4-[4-(3,3-dimethylbutyryl)piperazin-1-yl]-6-(3,4-dimethoxyphenyl)-pyrido[3,2-d]pyrimidine]	300
C=CC(=O)N1CCN(c2nc(N)nc3ccc(-c4ccc(OC)c(OC)c4)nc23)CC1 [Example 393, 2-amino-4-[4-(2-propenoyl)piperazin-1-yl]-6-(3,4-dimethoxyphenyl)-pyrido[3,2-d]pyrimidine]	400
COc1ccc(-c2ccc3nc(N)nc(N4CCN(C(=O)CNC(=O)OC(C)(C)C)CC4)c3n2)cc1OC [Example 396, 2-amino-4-{4-[N-(tert-butoxycarbonyl)-glycyl]-piperazin-1-yl}-6-(3,4-di-methoxyphenyl)-pyrido[3,2-d]pyrimidine]	50
